Assay results published in patent publication US10925855B2, “Compositions comprising water dispersible nanoparticles of a retinoid compound” (GALDERMA RESEARCH & DEVELOPMENT, priority 2015, dated 2021).

Experiment: Stabilizer screening (colloid stability after precipitation)
Assay type: physicochemical
Conditions: Compound A 1.0 mg; for Observation: Stable for: at RT
Protocol: If the colloid solution was stable over 2 hours (no aggregation, sedimentation, crystal forming), and no aggregation occurred, the sample was lyophilized. • If precipitation occurred, however the colloid solution was not stable over the whole solid formulation procedure, other stabilizers were tested. Results

CC(C)(C)c1cc(-c2cc(-c3ccc(C(=O)O)cc3)ccc2OCCO)ccc1N1CCCC1 [Compound A, 3″-tert-butyl-4′-(2-hydroxyethoxy)-4″-pyrrolidin-1-yl[1,1′;3′,1″]-terphenyl-4-carboxylic acid]
Observation: Aggregated within (2 mg PVP10, 1 mL EtOH, 7 mL 0.5 mg/mL SDS solution): Aggregated within 1 hour | Observation (2 mg PVP10, 1 mL IPA, 4 mL water): Aggregated | Observation (2 mg PVP10, 1 mL MeOH, 4 mL water): Precipitation did not occur | Observation: Colloid, Stable for (2 mg PVP40, 1 mL EtOH, 4 mL water): Colloid, Stable for 15 min | Observation (2 mg PVP40, 1 mL EtOH, 7 mL 0.05 mg/mL BAC solution): Aggregated immediately | Observation (2 mg PVP40, 1 mL EtOH, 7 mL 0.05 mg/mL DSS solution): Aggregated immediately | Observation (2 mg PVP40, 1 mL EtOH, 7 mL 0.05 mg/mL Mannitol solution): Aggregated immediately | Observation (2 mg PVP40, 1 mL EtOH, 7 mL 0.05 mg/mL NaOAc solution): Aggregated immediately | Observation (2 mg PVP40, 1 mL EtOH, 7 mL 0.05 mg/mL SDS solution): Aggregated immediately | Observation (2 mg PVP40, 1 mL EtOH, 7 mL 0.05 mg/mL citric acid solution): Aggregated immediately | Observation (2 mg PVP40, 1 mL EtOH, 7 mL 0.5 mg/mL BAC solution): Aggregated immediately | Observation: Aggregated within (2 mg PVP40, 1 mL EtOH, 7 mL 0.5 mg/mL DSS solution): Aggregated within 1 hour | Observation (2 mg PVP40, 1 mL EtOH, 7 mL 0.5 mg/mL Mannitol solution): Aggregated immediately | Observation: Aggregated within (2 mg PVP40, 1 mL EtOH, 7 mL 0.5 mg/mL NaOAc solution): Aggregated within 1 hour | Observation: Aggregated within (2 mg PVP40, 1 mL EtOH, 7 mL 0.5 mg/mL SDS solution): Aggregated within 1 hour | Observation (2 mg PVP40, 1 mL EtOH, 7 mL 0.5 mg/mL citric acid solution): Aggregated immediately | Observation (2 mg PVP40, 1 mL IPA, 4 mL water): Aggregated | Observation (2 mg PVP40, 1 mL MeOH, 4 mL water): Precipitation did not occur | Observation: Colloid, Stable for (2 mg PVPK90, 1 mL EtOH, 4 mL water): Colloid, Stable for 5 min | Observation (2 mg PVPK90, 1 mL IPA, 4 mL water): Aggregated | Observation (2 mg PVPK90, 1 mL MeOH, 4 mL water): Precipitation did not occur | Observation (2 mg Pluronic PE6800, 1 mL ACE, 4 mL water): Aggregated immediately | Observation (2 mg Pluronic PE6800, 1 mL EtOH, 4 mL water): Aggregated | Observation (2 mg Pluronic PE6800, 1 mL IPA, 4 mL water): Aggregated | Observation (2 mg Pluronic PE6800, 1 mL MeOH, 4 mL water): Cloudy immediately | Observation (2 mg Pluronic PE6800, 1 mL THF, 5 mL water): Aggregated | Observation (2 mg Pluronic PE10500, 1 mL ACE, 4 mL water): Aggregated immediately | Observation (2 mg Pluronic PE10500, 1 mL EtOH, 4 mL water): Aggregated | Observation (2 mg Pluronic PE10500, 1 mL IPA, 4 mL water): Aggregated | Observation (2 mg Pluronic PE10500, 1 mL MeOH, 4 mL water): Cloudy immediately | Observation (2 mg Pluronic PE10500, 1 mL THF, 4 mL water): Aggregated | Observation: Aggregated within (2 mg Soluplus, 1 mL ACE, 4 mL water): Aggregated within 5 min | Observation: Slightly opalescent colloid, stable for (2 mg Soluplus, 1 mL EtOH, 4 mL water): stable for 5 min | Observation (2 mg Soluplus, 1 mL MeOH, 4 mL water): Precipitation did not occur | Observation (2 mg Soluplus, 1 mL THF, 4 mL water): Aggregated | Observation (2 mg Solutol, 1 mL ACE, 4 mL water): Aggregated immediately | Observation (2 mg Solutol, 1 mL EtOH, 4 mL water): Aggregated | Observation (2 mg Solutol, 1 mL IPA, 4 mL water): Aggregated | Observation (2 mg Solutol, 1 mL MeOH, 4 mL water): Aggregated | Observation (2 mg Solutol, 1 mL THF, 4 mL water): Aggregated | Observation: Aggregated within (2 mg TPGS, 1 mL ACE, 4 mL water): Aggregated within 5 min | Observation (2 mg TPGS, 1 mL EtOH, 4 mL water): Aggregated | Observation (2 mg TPGS, 1 mL IPA, 4 mL water): Aggregated | Observation: Aggregated after (2 mg TPGS, 1 mL MeOH, 4 mL water): Aggregated after 25 min | Observation (2 mg TPGS, 1 mL THF, 4 mL water): Aggregated | Observation (2 mg Tetronic, 1 mL ACE, 4 mL water): Aggregated immediately | Observation (2 mg Tetronic, 1 mL EtOH, 4 mL water): Aggregated | Observation (2 mg Tetronic, 1 mL IPA, 4 mL water): Aggregated | Observation (2 mg Tetronic, 1 mL MeOH, 4 mL water): Cloudy immediately | Observation (2 mg Tetronic, 1 mL THF, 4 mL water): Aggregated | Observation: Aggregated within (3 mg Luviskol VA64, 1 mL EtOH, 0.0001M NaOH solution): Aggregated within 1 day | Observation: Stable for (3 mg Luviskol VA64, 1 mL EtOH, 0.001M NaOH solution): Stable for 3 days at RT | Observation: Stable for (3 mg Luviskol VA64, 1 mL EtOH, 0.01M NaOH solution): Stable for 3 days at RT | Observation: Stable for (3 mg Luviskol VA64, 1 mL EtOH, 0.1M NaOH solution): Stable for 3 days at RT | Observation (3 mg Luviskol VA64, 1 mL EtOH, 7 mL 0.05 mg/mL NaOAc solution): Aggregated immediately | Observation: Stable for (3 mg Luviskol VA64, 1 mL EtOH, 7 mL 0.5 mg/mL NaOAc solution): Stable for 3 days at RT | Observation (3 mg PVP10, 1 mL EtOH, 7 mL 0.05 mg/mL NaOAc solution): Aggregated immediately | Observation: Aggregated within (3 mg PVP10, 1 mL EtOH, 7 mL 0.5 mg/mL NaOAc solution): Aggregated within 1 hour | Observation (3 mg PVP40, 1 mL EtOH, 7 mL 0.05 mg/mL NaOAc solution): Aggregated immediately | Observation: Stable for (3 mg PVP40, 1 mL EtOH, 7 mL 0.5 mg/mL NaOAc solution): Stable for 1 day at RT | Observation (4 mg Luviskol VA64, 1 mL EtOH, 7 mL 0.05 mg/mL NaOAc solution): Aggregated immediately | Observation: Aggregated within (4 mg Luviskol VA64, 1 mL EtOH, 7 mL 0.5 mg/mL NaOAc solution): Aggregated within 1 day | Observation (4 mg PVP10, 1 mL EtOH, 7 mL 0.05 mg/mL NaOAc solution): Aggregated immediately | Observation: Aggregated within (4 mg PVP10, 1 mL EtOH, 7 mL 0.5 mg/mL NaOAc solution): Aggregated within 1 hour | Observation (4 mg PVP40, 1 mL EtOH, 7 mL 0.05 mg/mL NaOAc solution): Aggregated immediately | Observation: Aggregated within (4 mg PVP40, 1 mL EtOH, 7 mL 0.5 mg/mL NaOAc solution): Aggregated within 1 day | Observation (no stabilizer (—), 1 mL ACE, 4 mL water): Aggregated | Observation (no stabilizer (—), 1 mL EtOH, 4 mL water): Aggregated | Observation (no stabilizer (—), 1 mL IPA, 4 mL water): Aggregated | Observation (no stabilizer (—), 1 mL MeOH, 4 mL water): Aggregated
